Reference: ChEMBL document CHEMBL5380833 (J Med Chem, 2023)
Active and inactive are the calls of the source. The calls are words filed in the database; no cut-off is given here.

Experiments:
[1] = Toxicity in Balb/c mouse assessed as drug tolerance at 10 mg/kg, ip measured upto 24 hrs by LC-MS/MS analysis; format: organism-based; conditions: in vivo
[2] = target: Tyrosine-protein kinase BTK (Homo sapiens) (UniProt Q06187); assay: Induction of degradation of BTK in human Ramos cells at 0.01 to 10 uM by immunoblotting analysis; format: cell-based; conditions: dose 0.01-10 µM
[3] = target: T1, Protein cereblon/Tyrosine-protein kinase ITK/TSK (Homo sapiens, UniProt Q08881+Q96SW2); assay: PROTAC activity at CRBN/ITK in human Jurkat cells assessed as reduction in ITK protein at 100 nM measured within 4 hrs; format: cell-based
Target sequence in this assay (Q08881 whole entry, looked up): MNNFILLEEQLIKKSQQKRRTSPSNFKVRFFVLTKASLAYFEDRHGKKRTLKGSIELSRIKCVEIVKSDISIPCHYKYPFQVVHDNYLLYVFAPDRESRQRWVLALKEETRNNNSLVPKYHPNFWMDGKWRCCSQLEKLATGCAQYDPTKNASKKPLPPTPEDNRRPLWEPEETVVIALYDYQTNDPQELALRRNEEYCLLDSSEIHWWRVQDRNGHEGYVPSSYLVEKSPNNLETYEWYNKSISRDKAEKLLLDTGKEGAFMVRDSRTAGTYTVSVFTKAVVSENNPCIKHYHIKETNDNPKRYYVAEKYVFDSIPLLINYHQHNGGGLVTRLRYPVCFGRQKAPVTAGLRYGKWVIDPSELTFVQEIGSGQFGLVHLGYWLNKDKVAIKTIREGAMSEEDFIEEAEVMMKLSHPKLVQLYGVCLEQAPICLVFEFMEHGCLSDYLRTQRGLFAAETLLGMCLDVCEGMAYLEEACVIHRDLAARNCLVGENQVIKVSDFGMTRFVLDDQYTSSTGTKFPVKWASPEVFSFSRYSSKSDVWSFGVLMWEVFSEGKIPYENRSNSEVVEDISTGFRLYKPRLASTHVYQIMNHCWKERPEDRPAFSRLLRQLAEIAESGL
Target sequence in this assay (Q96SW2 whole entry, looked up): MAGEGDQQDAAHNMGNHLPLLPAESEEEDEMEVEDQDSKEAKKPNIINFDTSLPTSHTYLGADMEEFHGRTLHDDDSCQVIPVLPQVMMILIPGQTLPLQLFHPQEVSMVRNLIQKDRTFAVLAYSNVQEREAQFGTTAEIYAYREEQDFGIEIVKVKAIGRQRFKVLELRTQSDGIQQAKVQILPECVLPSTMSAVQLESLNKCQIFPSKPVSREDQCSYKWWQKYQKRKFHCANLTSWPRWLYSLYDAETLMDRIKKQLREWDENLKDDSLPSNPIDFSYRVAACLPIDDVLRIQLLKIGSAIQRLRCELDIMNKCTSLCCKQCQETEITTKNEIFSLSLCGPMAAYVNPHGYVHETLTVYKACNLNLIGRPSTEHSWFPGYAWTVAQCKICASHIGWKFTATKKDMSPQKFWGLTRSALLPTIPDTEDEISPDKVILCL

[4] = target: T2, Tyrosine-protein kinase ZAP-70 (Homo sapiens) (UniProt P43403); assay: Induction of degradation of ZAP-70 in human Jurkat cells at 0.01 to 10 uM by immunoblotting analysis; format: cell-based; conditions: dose 0.01-10 µM
T2 sequence (whole entry): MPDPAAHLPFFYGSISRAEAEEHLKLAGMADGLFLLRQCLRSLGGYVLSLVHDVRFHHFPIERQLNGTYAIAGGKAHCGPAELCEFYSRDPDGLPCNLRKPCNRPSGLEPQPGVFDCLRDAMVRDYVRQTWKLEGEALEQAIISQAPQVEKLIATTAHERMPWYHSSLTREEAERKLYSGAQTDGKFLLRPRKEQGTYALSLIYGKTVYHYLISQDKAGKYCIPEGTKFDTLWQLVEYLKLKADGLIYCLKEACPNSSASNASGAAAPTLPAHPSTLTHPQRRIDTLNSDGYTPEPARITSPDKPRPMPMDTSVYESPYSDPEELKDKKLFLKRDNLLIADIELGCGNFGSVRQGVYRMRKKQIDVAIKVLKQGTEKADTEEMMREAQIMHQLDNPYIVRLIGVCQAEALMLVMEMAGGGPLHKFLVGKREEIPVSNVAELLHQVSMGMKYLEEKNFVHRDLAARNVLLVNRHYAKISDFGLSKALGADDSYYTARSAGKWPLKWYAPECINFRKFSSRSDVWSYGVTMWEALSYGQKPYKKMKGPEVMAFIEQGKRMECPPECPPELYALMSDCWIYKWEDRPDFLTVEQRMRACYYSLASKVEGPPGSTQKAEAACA

[5] = target: T1, Protein cereblon/Tyrosine-protein kinase ITK/TSK; assay: PROTAC activity at CRBN/ITK in human Jurkat cells assessed as induction of ITK degradation at 100 nM pretreated with MLN4924 for 1 hr followed by compound addition and measured after 2 hrs by Western blot analysis; format: cell-based
Target sequence in this assay (Q08881 whole entry, looked up): as the sequence (Q08881 whole entry, looked up) above
Target sequence in this assay (Q96SW2 whole entry, looked up): as the sequence (Q96SW2 whole entry, looked up) above

[6] = target: Tyrosine-protein kinase Yes (Homo sapiens) (UniProt P07947); assay: Induction of degradation of YES in human Ramos cells at 0.01 to 10 uM by immunoblotting analysis; format: cell-based; conditions: dose 0.01-10 µM
[7] = Volume of distribution at steady state in Balb/c mouse at 10 mg/kg, ip measured upto 24 hrs by LC-MS/MS analysis; format: ADME, organism-based; conditions: in vivo
[8] = target: Tyrosine-protein kinase Tec (Homo sapiens) (UniProt P42680); assay: Induction of degradation of TEC in human Jurkat cells at 0.01 to 10 uM by immunoblotting analysis; conditions: dose 0.01-10 µM
[9] = Half life in Balb/c mouse at 5 mg/kg, iv measured upto 24 hrs by LC-MS/MS analysis; format: ADME, organism-based; conditions: in vivo
Interleukin-2 = Interleukin-2 (Homo sapiens, UniProt P60568); assay: Inhibition of IL-2 in human Jurkat cells pretreated with compound for 4 hrs followed by anti-CD3/CD28 stimulation by ELISA analysis; format: cell-based
[10] = AUC (0 to infinity) in Balb/c mouse at 10 mg/kg, ip measured upto 24 hrs by LC-MS/MS analysis; format: ADME, organism-based; design: dose 10 mg/kg, time < 24 hrs, route ip; conditions: in vivo
[11] = target: T1, Protein cereblon/Tyrosine-protein kinase ITK/TSK; assay: PROTAC activity at CRBN/ITK in human Jurkat cells assessed as downregulation of ITK protein at 100 nM preincubated with cells for 12 hrs followed by compound washout measured after 24 hrs; format: cell-based
Target sequence in this assay (Q08881 whole entry, looked up): as the sequence (Q08881 whole entry, looked up) above
Target sequence in this assay (Q96SW2 whole entry, looked up): as the sequence (Q96SW2 whole entry, looked up) above

[12] = target: T3, Tyrosine-protein kinase TXK (Homo sapiens) (UniProt P42681); assay: Induction of degradation of RLK in human Jurkat cells at 0.01 to 10 uM by immunoblotting analysis; format: cell-based; conditions: dose 0.01-10 µM
T3 sequence (whole entry): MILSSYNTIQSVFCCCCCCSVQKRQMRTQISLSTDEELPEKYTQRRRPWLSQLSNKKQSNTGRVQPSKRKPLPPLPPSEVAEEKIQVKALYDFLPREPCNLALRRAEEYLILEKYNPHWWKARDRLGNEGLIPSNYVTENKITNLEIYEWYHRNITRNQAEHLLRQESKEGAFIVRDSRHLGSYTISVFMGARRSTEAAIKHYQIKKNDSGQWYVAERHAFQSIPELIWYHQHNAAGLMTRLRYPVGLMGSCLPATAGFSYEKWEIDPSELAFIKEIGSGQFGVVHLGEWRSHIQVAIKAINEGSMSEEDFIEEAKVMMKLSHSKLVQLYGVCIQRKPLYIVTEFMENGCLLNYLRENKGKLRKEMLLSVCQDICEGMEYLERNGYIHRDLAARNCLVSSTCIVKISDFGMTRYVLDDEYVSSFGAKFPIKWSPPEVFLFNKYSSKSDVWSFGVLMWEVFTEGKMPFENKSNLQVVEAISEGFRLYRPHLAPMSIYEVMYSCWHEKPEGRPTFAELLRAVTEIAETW

[13] = target: T1, Protein cereblon/Tyrosine-protein kinase ITK/TSK; assay: PROTAC activity at CRBN/ITK in human Jurkat cells assessed as induction of ITK degradation by Western blot analysis; format: cell-based; conditions: read-out: EC50
Target sequence in this assay (Q08881 whole entry): as the sequence (Q08881 whole entry, looked up) above
Target sequence in this assay (Q96SW2 whole entry): as the sequence (Q96SW2 whole entry, looked up) above

[14] = target: T4, Cytoplasmic tyrosine-protein kinase BMX (Homo sapiens) (UniProt P51813); assay: Induction of degradation of BMX in human Jurkat cells at 0.01 to 10 uM by immunoblotting analysis; format: cell-based; conditions: dose 0.01-10 µM
T4 sequence (whole entry): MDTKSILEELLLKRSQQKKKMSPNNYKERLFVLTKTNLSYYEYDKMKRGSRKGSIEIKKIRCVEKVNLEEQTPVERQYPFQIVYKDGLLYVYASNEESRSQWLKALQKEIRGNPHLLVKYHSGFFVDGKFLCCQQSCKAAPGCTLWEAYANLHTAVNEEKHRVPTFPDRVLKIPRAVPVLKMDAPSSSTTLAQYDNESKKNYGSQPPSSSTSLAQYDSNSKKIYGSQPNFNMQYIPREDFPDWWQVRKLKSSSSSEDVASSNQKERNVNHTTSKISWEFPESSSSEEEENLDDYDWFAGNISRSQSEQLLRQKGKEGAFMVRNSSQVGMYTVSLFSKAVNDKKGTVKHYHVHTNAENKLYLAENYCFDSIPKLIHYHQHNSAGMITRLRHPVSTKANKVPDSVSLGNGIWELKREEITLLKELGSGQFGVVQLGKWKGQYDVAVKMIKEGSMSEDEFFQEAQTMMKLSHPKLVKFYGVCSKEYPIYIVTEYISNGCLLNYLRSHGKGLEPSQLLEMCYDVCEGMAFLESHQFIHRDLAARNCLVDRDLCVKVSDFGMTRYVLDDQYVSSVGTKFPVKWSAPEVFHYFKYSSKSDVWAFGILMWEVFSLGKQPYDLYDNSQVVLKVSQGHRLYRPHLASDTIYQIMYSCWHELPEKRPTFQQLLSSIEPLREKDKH

[15] = target: T1, Protein cereblon/Tyrosine-protein kinase ITK/TSK; assay: PROTAC activity at CRBN/ITK in human Jurkat cells assessed as […] ITK degradation at 300 nM incubated for 8 hrs by tandem mass tag quantitative proteomic analysis; format: cell-based
Target sequence in this assay (Q08881 whole entry, looked up): as the sequence (Q08881 whole entry, looked up) above
Target sequence in this assay (Q96SW2 whole entry, looked up): as the sequence (Q96SW2 whole entry, looked up) above

Tyrosine-protein kinase BTK (Homo sapiens), sequence (Q06187 whole entry): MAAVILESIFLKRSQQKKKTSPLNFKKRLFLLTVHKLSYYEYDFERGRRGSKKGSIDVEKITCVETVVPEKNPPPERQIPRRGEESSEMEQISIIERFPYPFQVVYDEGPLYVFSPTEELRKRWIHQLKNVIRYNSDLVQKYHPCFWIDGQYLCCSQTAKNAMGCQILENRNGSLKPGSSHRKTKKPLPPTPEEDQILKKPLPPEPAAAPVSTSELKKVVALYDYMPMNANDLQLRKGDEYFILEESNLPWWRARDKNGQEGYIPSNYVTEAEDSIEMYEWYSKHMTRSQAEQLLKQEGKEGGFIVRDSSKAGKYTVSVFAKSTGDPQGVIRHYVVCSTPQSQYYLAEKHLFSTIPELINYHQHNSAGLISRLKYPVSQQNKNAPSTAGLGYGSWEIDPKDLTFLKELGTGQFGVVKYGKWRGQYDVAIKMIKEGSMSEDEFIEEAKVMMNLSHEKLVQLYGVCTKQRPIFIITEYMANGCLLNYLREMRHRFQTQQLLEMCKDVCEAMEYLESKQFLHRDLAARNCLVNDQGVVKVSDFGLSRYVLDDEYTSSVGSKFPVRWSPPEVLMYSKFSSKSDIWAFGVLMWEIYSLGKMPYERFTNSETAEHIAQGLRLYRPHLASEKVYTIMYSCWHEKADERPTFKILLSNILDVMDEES
Tyrosine-protein kinase Yes (Homo sapiens), sequence (P07947 2-543 limits assumed): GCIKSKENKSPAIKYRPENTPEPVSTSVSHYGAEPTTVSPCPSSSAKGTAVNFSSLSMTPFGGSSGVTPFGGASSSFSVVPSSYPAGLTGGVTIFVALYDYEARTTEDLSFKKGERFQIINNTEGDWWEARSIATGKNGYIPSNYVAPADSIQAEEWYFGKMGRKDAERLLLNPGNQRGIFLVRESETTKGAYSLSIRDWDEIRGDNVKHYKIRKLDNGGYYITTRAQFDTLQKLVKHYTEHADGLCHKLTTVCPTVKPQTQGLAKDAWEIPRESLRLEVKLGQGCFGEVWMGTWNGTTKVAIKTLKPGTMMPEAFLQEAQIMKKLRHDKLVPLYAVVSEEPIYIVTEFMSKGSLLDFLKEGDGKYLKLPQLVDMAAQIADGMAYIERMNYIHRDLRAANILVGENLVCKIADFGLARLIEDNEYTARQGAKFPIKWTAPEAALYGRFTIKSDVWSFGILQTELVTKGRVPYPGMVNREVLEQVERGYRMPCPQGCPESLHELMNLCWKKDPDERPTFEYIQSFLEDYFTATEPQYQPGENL
Tyrosine-protein kinase Tec (Homo sapiens), sequence (P42680 whole entry, looked up): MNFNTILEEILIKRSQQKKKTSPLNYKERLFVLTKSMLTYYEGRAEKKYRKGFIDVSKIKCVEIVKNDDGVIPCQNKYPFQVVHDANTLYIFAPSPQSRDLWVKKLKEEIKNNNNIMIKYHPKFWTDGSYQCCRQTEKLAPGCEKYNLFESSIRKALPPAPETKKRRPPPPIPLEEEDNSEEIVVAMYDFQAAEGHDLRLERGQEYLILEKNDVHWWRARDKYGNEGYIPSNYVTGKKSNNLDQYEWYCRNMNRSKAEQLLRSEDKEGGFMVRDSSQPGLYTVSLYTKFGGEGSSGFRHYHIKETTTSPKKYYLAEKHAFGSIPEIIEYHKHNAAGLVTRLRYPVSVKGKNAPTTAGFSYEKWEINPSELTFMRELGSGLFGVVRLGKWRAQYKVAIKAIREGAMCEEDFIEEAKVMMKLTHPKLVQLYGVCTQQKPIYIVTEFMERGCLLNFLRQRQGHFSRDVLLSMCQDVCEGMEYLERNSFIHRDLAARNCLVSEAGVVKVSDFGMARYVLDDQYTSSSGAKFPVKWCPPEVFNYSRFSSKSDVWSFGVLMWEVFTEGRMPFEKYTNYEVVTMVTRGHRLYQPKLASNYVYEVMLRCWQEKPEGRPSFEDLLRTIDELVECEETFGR
Interleukin-2, sequence (P60568 whole entry): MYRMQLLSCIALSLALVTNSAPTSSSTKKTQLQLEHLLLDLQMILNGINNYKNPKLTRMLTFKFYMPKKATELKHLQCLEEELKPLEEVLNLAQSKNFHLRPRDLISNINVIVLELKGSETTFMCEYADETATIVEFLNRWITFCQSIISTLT

Activity [2]: inactive | Activity [3]: Active | Activity [4]: inactive | Activity [5]: inactive | Activity [6]: inactive | Vdss [7]: 18.4 L/kg | Activity [8]: inactive | half-life [9]: 1.88 h | EC50 (Interleukin-2): 25.3 nM | AUC(0-inf) [10]: 1590 ng·h/mL | Activity [11]: Active | Activity [12]: inactive | EC50 [13]: 7 nM | Activity [14]: inactive | Activity [15]: Active
SMILES: CN(CCCCCC(=O)Nc1ccc2c(c1)C(=O)N(C1CCC(=O)NC1=O)C2=O)CC[C@@H](c1ccccc1)n1cc(NC(=O)c2n[nH]c3c2CCC(C)(C)C3)cn1.O=C(O)C(F)(F)F (stereo partly specified)
Activity [1]: Non-Toxic
